From US20250011288A1 (BRISTOL-MYERS SQUIBB COMPANY, priority 2021, published 2025) come the findings set out here.

pEC50: −log10 of the molar value.

The target in the experiment is T1, human RXFP1 (Homo sapiens, UniProt Q9HBX9).
T1 construct: expressed in transfected cells
T1 sequence (Q9HBX9 1-757): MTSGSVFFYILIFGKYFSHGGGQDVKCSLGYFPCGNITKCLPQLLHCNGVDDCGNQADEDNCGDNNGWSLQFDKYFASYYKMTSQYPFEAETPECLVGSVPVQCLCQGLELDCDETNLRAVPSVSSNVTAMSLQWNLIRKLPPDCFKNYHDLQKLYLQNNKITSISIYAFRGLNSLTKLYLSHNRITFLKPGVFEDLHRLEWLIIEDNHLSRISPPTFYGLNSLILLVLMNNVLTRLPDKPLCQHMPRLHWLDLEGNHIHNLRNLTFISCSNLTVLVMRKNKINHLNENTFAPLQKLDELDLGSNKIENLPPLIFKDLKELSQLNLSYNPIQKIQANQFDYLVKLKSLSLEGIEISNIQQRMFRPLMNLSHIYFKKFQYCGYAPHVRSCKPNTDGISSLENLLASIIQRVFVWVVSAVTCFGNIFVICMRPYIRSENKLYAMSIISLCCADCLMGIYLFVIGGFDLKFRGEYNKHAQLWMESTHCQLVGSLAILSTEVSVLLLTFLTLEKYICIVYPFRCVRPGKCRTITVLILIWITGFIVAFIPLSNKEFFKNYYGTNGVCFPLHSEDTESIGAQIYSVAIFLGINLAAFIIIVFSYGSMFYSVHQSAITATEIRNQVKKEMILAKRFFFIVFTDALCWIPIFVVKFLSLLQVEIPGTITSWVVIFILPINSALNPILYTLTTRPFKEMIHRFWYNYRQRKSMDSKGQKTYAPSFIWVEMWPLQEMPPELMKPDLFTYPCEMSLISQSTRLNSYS
Put plainly: human RXFP1 (hRXFP1) HEK293 cAMP assay (HTRF). It is filed as cell-based. As to conditions: HEK293 cells stably expressing human RXFP1, 30 min at room temperature. As to the method: RXFP1 Cyclic Adenosine Monophosphate (cAMP) Assays. […] Cells were dissociated and suspended in assay buffer. The assay buffer was HBSS buffer (with calcium and magnesium) containing 20 mM HEPES, 0.05% BSA, and 0.5 mM IBMX. Cells (3000 cells per well, except 1500 cell per well for HEK293 cells stably expressing human RXFP1) were added to 384-well Proxiplates (Perkin-Elmer). Cells were immediately treated with test compounds in DMSO (2% final) at final concentrations in the range of 0.010 nM to 50 µM. Cells were incubated for 30 min at room temperature. The level of intracellular cAMP was determined using the HTRF HiRange cAMP assay reagent kit (Cisbio) according to manufacturer's instructions. Solutions of cryptate conjugated anti-cAMP and d2 fluorophore-labelled cAMP were made in a supplied lysis buffer separately. Upon completion of the reaction, the cells were lysed with equal volume of the d2-cAMP solution and anti-cAMP solution. […] The potency and activity of a compound to […] cAMP production was then determined by fitting to a 4-parametric logistic equation from a plot of cAMP level versus compound concentrations.
Background: cAMP levels reflect the balance of adenylyl cyclase and phosphodiesterase activity.
Turning to `COc1ncc(-c2cc([C@H](OC(=O)N3CC4(COC4)C3)C(F)(F)F)ccc2F)cc1C(=O)N[C@@H]1C2CCC(/C2=C/C2CC2)[C@@H]1C(=O)Nc1ccc(F)c(C(F)(F)F)c1` (stereo partly drawn) [Example 184, (1S)-1-[3-(5-{[(2R,3S,7Z)-7-(cyclopropyl-methylidene)-3-{[4-fluoro-3-(trifluoromethyl)phenyl]carbamoyl}bicyclo[2.2.1]heptan-2-yl]carbamoyl}-6-methoxypyridin-3-yl)-4-fluorophenyl]-2,2,2-trifluoroethyl 2-oxa-6-azaspiro[3.3] heptane-6-carboxylate], the negative logarithm of the EC50 (pEC50) (commonly the EC50 on a negative log10 scale, so that one unit is a factor of ten) is 8.32.

Take `COc1ccc(-c2cc(C(=O)O)ccc2F)nc1C(=O)N[C@@H]1C2CCC(/C2=C/c2cnoc2)[C@@H]1C(=O)Nc1ccc(F)c(C(F)(F)F)c1` (stereo partly drawn) [Example 27, 4-Fluoro-3-(6-{[(2R,3S,7Z)-3-{[4-fluoro-3-(trifluoromethyl)phenyl]carbamoyl}-7-[(1,2-oxazol-4-yl)methylidene]bicyclo[2.2.1]heptan-2-yl]carbamoyl}-5-methoxypyridin-2-yl)benzoic acid]: the pEC50 was 6.54. This pEC50 is 1.78 log units lower than that of the compound before.

`COc1cc2c(cc1C(=O)N[C@@H]1C3CCC(/C3=C/C3CC3)[C@@H]1C(=O)Nc1ccc(F)c(C(F)(F)F)c1)CCN(CC(C)(C)O)C2` (stereo partly drawn) [Example 95]: the pEC50 is 5.80.

Compound `COc1ncc(C2=NOC3CC(C(C)O)CC23)cc1C(=O)N[C@H]1[C@@H](C(=O)N[C@H](C)C2(C)CC2)[C@H]2CC[C@@H]1/C2=C\C1CC1` (stereo partly drawn) [Example 159, N-[(1R,2R,3S,4R, 7Z)-7-(cyclopropyl-methylidene)-3-{[(1R)-1-(1-methylcyclopropyl)ethyl]carbamoyl}bicyclo[2.2.1]heptan-2-yl]-5-[5-(1-hydroxyethyl)-3aH,4H,5H,6H, 6aH-cyclopenta[d][1,2]oxazol-3-yl]-2-methoxypyridine-3-carboxamide] showed a negative-log EC50 (pEC50) of 8.21.

Compound `COc1ncc(-c2cccc(C(=O)O)c2)cc1C(=O)N[C@@H]1C2CCC(/C2=C/C(F)(F)F)[C@@H]1C(=O)Nc1ccc(F)c(C(F)(F)F)c1` (stereo partly drawn) [Example 29, 3-(5-{[(2R,3S,7Z)-3-{[4-fluoro-3-(trifluoromethyl)phenyl]carbamoyl}-7-(2,2,2-trifluoroethylidene)bicyclo[2.2.1]heptan-2-yl]carbamoyl}-6-methoxypyridin-3-yl)benzoic acid] gave a pEC50 of 6.87.

`COc1ncc(C(=O)NCC2(S(C)(=O)=O)CC2)cc1C(=O)N[C@H]1C(C(=O)Nc2ccc(F)c(C(F)(F)F)c2)[C@H]2CC[C@@H]1/C2=C\C1CC1` (stereo in doubt) [Example 74, N3-((1R,2R,3R,4R,Z)-7-(cyclopropylmethylene)-3-((4-fluoro-3-(trifluoromethyl)phenyl)carbamoyl)bicyclo[2.2.1]heptan-2-yl)-2-methoxy-N5-((1-(methylsulfonyl)cyclopropyl)methyl)pyridine-3,5-dicarboxamide] gave a pEC50 of 8.46.

For `COc1ncc(C2=NOC3CC(C(N)=O)CC23)cc1C(=O)N[C@H]1[C@@H](C(=O)Nc2ccc(F)c(C(F)(F)F)c2)[C@H]2CC[C@@H]1/C2=C\C1CC1` (stereo partly drawn) [Example 66, 5-{5-carbamoyl-3aH,4H,5H,6H, 6aH-cyclopenta[d][1, 2]oxazol-3-yl}-N-[(1R,2R,3S, 4R,7Z)-7-(cyclopropylmethylidene)-3-{[4-fluoro-3-(trifluoromethyl)phenyl]carbamoyl}bicyclo[2.2.1]heptan-2-yl]-2-methoxypyridine-3-carboxamide], the pEC50 is 8.89.

In turn, `COc1ncc(C2=NOC3CC(CO)CC23)cc1C(=O)N[C@H]1[C@@H](C(=O)N[C@H](C)C2(C)CC2(F)F)[C@H]2CC[C@@H]1/C2=C\C(F)(F)F` (stereo partly drawn) [Example 116, N-((1R,2R,3S,4R,Z)-3-(((1R)-1-(2,2-difluoro-1-methylcyclopropyl)ethyl)carbamoyl)-7-(2,2,2-trifluoroethylidene)bicyclo[2.2.1]heptan-2-yl)-5-(5-(hydroxymethyl)-3a,5,6,6a-tetrahydro-4H-cyclopenta[d]isoxazol-3-yl)-2-methoxynicotinamide] had a pEC50 of 8.57.

Regarding `COc1ncc(-c2cc(C(=O)O)ccc2F)cc1C(=O)N[C@@H]1C2CCC(/C2=C/c2ccccc2)[C@@H]1C(=O)Nc1ccc(F)c(C(F)(F)F)c1` (stereo partly drawn) [Example 25, 4-Fluoro-3-(5-{[(2R,3S,7Z)-3-{[4-fluoro-3-(trifluoromethyl)phenyl]carbamoyl}-7-(phenylmethylidene)bicyclo[2.2.1]heptan-2-yl]carbamoyl}-6-methoxypyridin-3-yl)benzoic acid], the pEC50 is 7.48. Against the preceding compound, the pEC50 is 1.09 log units lower.

Turning to `COc1ncc(C2=NOC3CC(C(OC(=O)Nc4ccccc4)C4CC4)CC23)cc1C(=O)N[C@@H]1C2CCC(/C2=C/C2CC(F)(F)C2)[C@@H]1C(=O)Nc1ccc(F)c(C(F)(F)F)c1` (stereo partly drawn) [Example 160, cyclopropyl[3-(5-{[(2R,3S,7Z)-7-1(3,3-difluorocyclobutyl)methylidene]-3-{[4-fluoro-3-(trifluoromethyl)phenyl]carbamoyl}bicyclo[2.2.1]heptan-2-yl]carbamoyl}-6-methoxypyridin-3-yl)-3aH,4H,5H,6H, 6aH-cyclopenta[d][1,2] oxazol-5-yl]methyl N-phenylcarbamate], the pEC50 is 8.08.

`COc1ncc(Br)nc1C(=O)N[C@@H]1C2CCC(C2=C(C)C)[C@@H]1C(=O)Nc1ccc(F)c(C(F)(F)F)c1` (stereo partly drawn) [Example 5, 6-bromo-N-[(2R,3S)-3-{[4-fluoro-3-(trifluoromethyl)phenyl]carbamoyl}-7-(propan-2-ylidenc)bicyclo [2.2.1]heptan-2-yl]-3-methoxypyrazine-2-carboxamide] had a negative-log EC50 (pEC50) of 5.96.

Consider `Cn1c(=O)c(C(=O)N[C@@H]2C3CCC(/C3=C/C3CC3)[C@@H]2C(=O)Nc2ccc(F)c(C(F)(F)F)c2)cc2ccccc21` (stereo partly drawn) [Example 19], for which the pEC50 is 5.40.

Consider `CC1(C)Cc2cc(C3=NOC4CC(O)(C(F)(F)F)CC34)cc(C(=O)N[C@@H]3C4CCC(/C4=C/C4CCCC4)[C@@H]3C(=O)Nc3ccc(F)c(C(F)(F)F)c3)c2O1` (single isomer, unassigned) [Example 142], for which the negative-log EC50 (pEC50) was 8.66.

In turn, `COc1ncc(C2=NOC3CC(C(O)C(F)(F)F)CC23)cc1C(=O)N[C@H]1[C@@H](C(=O)Nc2ccc(F)c(C(F)(F)F)c2)[C@H]2CC[C@@H]1/C2=C\C1CC1` (stereo partly drawn) [Example 135, N-((1R,2R,3S,4R,Z)-7-(cyclopropyl-methylene)-3-((4-fluoro-3-(trifluoromethyl)phenyl)carbamoyl)bicyclo[2.2.1]heptan-2-yl)-2-methoxy-5-(5-(2,2,2-trifluoro-1-hydroxyethyl)-3a,5,6,6a-tetrahydro-4H-cyclopenta[d]isoxazol-3-yl)nicotinamide] showed a negative-log EC50 (pEC50) of 8.40.

`COc1cn(CCS(C)(=O)=O)nc1C(=O)N[C@H]1[C@@H](C(=O)Nc2ccc(F)c(C(F)(F)F)c2)[C@H]2CC[C@@H]1/C2=C\C1CC1` [Example 77, N-[(1R,2R,3S,4R,7Z)-7-(cyclopropylmethylidene)-3-{[4-fluoro-3-(trifluoromethyl)phenyl]carbamoyl}bicyclo[2.2.1]heptan-2-yl]-1-(2-methanesulfonylethyl)-4-methoxy-1H-pyrazole-3-carboxamide] gave a negative logarithm of the EC50 (pEC50) of 7.15.
